Data as given in PMC11056319, “Targeting PRMT9-mediated arginine methylation suppresses cancer stem cell maintenance and elicits cGAS-mediated anticancer immunity” (Nature Cancer, 2024).

system: Molm13; experiment: cells; set-up: Molm13 cell viability screen of virtual-screening hits, 4 days of treatment, per cent of control; conditions: Homo sapiens, MOLM-13, 96 h, 4 days
Protocol: We performed virtual screening. Briefly, we screened compounds for binding affinity to PRMT9; compounds were from the National Cancer Institute (NCI) and ZINC library (Fig. 4a,b). […] We used doses of 1 and 5 µM in a Molm13 cell-based viability assay (Extended Data Fig. 6a). […] Specifically, we assessed their effects on PRMT9 catalysis (Extended Data Fig. 6b). […] Cells were treated for 4 days with 1 or 5 μM compounds. For each compound, the number represents its library ID. Experiments were triplicated; P values were derived from t tests. b, R493 methylation assay. […] Catalytic activity was assessed by anti-R493 antibody. Synthesized R493me peptide as positive control. c, Catalysis screen of top 20 compounds. PRMT9 protein was pretreated with indicated compound (10 μM), then incubated with PABPC1 peptides and SAM. d, e, Catalytic activity of indicated compounds based on R493 methylation assay (d). Inhibition curves were calculated based on intensity of dots and normalized to DMSO (e). […] LD2 is designed based on NSC641396 (g). Docking model of NSC641396 in the catalytic pocket (f). h, IC50 analysis of LD2 in B-NHL lines. Cells were treated for 4 days with LD2. […] Cells were treated with a dose titration of 0.5–40 μM LD2 for 48 hr. The inhibition activity of LD2 to PRMT9 (right red curve) was evaluated by calculating the normalized PABPC1 R493 methylation signal. The inhibition activity of LD2 to PRMT5 (right blue curve) was evaluated by calculating the normalized SmB’B’ methylation signal (supplementary Fig. 2). k, Vina docking of LD2 with PRMT9, PRMT5, CARM1 or PRMT7 was performed, and the average docking scores (kcal/mol, with standard deviation) were shown. l, Molecular dynamics simulation analyses of LD2 with PRMT9 or PRMT5.

Compared with `O=C(Nc1ccccc1F)Nc1cccc2ccc(O)cc12` [NSC214005], `O=C(Nc1ccccc1F)Oc1cccc(OC(=O)Nc2ccccc2F)c1` [NSC214026] is higher in viability at 1 µM: 81.3% for the first, 92.2% for the second.

Going from `CC1=CC(C)(C)Nc2ccc(Cc3ccc4c(c3)C(C)=CC(C)(C)N4)cc21` [NSC217697] to `COc1ccc(C2OC3=C(Nc4cc(C)c(C)cc4N3)C2=O)cc1` (centres unmarked) [NSC372275], the viability at 1 µM rises from 69.3% to 95.6%.

Going from `Cc1cc(N2CCN(C)CC2)n2nc(-c3ccc(Cl)cc3)nc2n1` [NSC252359] to `Oc1c(Cl)cc(Cl)cc1/C=N/c1nc(-c2ccc(Cl)cc2)cs1` [NSC328104], the viability at 1 µM rises from 64% to 87.9%.

Compared with `O=C1c2ccccc2-c2nc3ccccc3n21` [NSC252777], `O=C(O)C(Cc1c[nH]c2ccccc12)N1C(=O)c2ccccc2C1=O` (centres unmarked) [NSC401077] is higher in viability at 1 µM: 77.6% for the first, 94.6% for the second.

Going from `O=C(Oc1ccc(NC(=O)c2cc3c(cc2Br)OCO3)cc1)c1ccccc1` [NSC268487] to `O=C(Nc1cccc2ccccc12)c1cc2c(cc1Br)OCO2` [NSC292923], the viability at 1 µM falls from 83.1% to 68.9%.

Going from `CO[C@@H]1C[C@](C)(O)Cc2cc3c(c(O)c21)C(=O)c1c(O)cc2c(c1C3=O)O[C@@H]1O[C@@]2(C)[C@H](O)[C@@H](N(C)C)[C@@H]1O` [NSC269148] to `CCCc1cc(=O)oc2c3c(c4c(c12)OC(C)(C)C=C4)OC(C)[C@H](C)[C@@H]3O` (some centres unmarked) [NSC661122], the viability at 1 µM rises from 2.1% to 100%.

Compared with `Cc1ccc(C2=Nc3ccccc3SC(c3cccc([N+](=O)[O-])c3)C2)cc1` (centres unmarked) [NSC270737], `O=[N+]([O-])c1ccc(C2CC(c3ccccc3)=Nc3ccccc3S2)cc1` (centres unmarked) [NSC270738] is lower in viability at 1 µM: 90.8% for the first, 84.6% for the second.

First: COc1cc2c(=O)n3c4c(cccc4c2cc1OC)CC3 [NSC276736]
Second: COc1ccc(/C=C2\Cc3ccccc3C2=O)cc1OC [NSC643174]
The viability at 1 µM of the first is lower: 97.9% for the first, 116% for the second.

First: c1ccc(-c2nc3ccccc3nc2-c2ccc(Sc3ccc(-c4nc5ccccc5nc4-c4ccccc4)cc3)cc2)cc1 [NSC293778]
Second: Nc1nc(N)c2cc(Sc3ccc4ccccc4c3)ccc2n1 [NSC305780]
The viability at 1 µM of the first is higher: 95.7% for the first, 12.7% for the second.

First: Cc1nn(-c2ccccc2)c2c1C(c1ccc([N+](=O)[O-])cc1)C(C#N)=C(N)O2 (centres unmarked) [NSC298892]
Second: COc1cc(C2NC(=O)C(C#N)=C(Nc3cccc(C)c3)S2)ccc1O (centres unmarked) [NSC319435]
The viability at 1 µM of the first is lower: 84.2% for the first, 96.8% for the second.

First: OC(c1cc(-c2ccc(C(F)(F)F)cc2)nc(C(F)(F)F)c1)C1CCCCN1 (centres unmarked) [NSC305798]
Second: N#C/C(=C\C=C\c1ccccc1)c1nc(-c2ccc(Cl)cc2)cs1 [NSC310347]
The viability at 1 µM of the first is higher: 91% for the first, 69.3% for the second.

Going from `Cc1cccc(NC2=C(C#N)C(=O)NC3(CCCC3)S2)c1` [NSC319436] to `Cc1c(N2CCCC2)cc2c(c1NC(=O)c1ccccc1Cl)C(C)(C)CC2(C)C` [NSC321496], the viability at 1 µM rises from 84% to 92.4%.

Compared with `c1ccc(CSc2nnc3c4ccccc4c4ccccc4c3n2)cc1` [NSC327702], `Oc1ccccc1-c1nc2c3ccccc3c3ccccc3c2[nH]1` [NSC332670] is lower in viability at 1 µM: 86.4% for the first, 79.2% for the second.

First: Clc1ccc(-c2n[nH]c3c2Cc2ccccc2-3)cc1Cl [NSC331968]
Second: CCN(CC)c1nc(Cl)nc(Nc2ccc3cc(-c4ccccc4)c(=O)oc3c2)n1 [NSC338963]
The viability at 1 µM of the first is lower: 62.9% for the first, 114% for the second.

First: CCN1Cc2c(/C=C/c3ccccc3)nc3ccc(OC)cc3c2N(c2cccc(Cl)c2)C1 [NSC340852]
Second: CC(=O)c1sc2c(c1OC(=O)c1ccc(Cl)cc1Cl)c(=O)n(-c1ccccc1)c(=S)n2-c1ccccc1 [NSC671136]
The viability at 1 µM of the first is higher: 88.3% for the first, 71.5% for the second.

First: C#Cc1cccc(NC(=O)c2ccc(Cl)cc2Cl)c1 [NSC372769]
Second: Cc1c(Cl)cccc1NC(=O)CC1Sc2ccccc2NC1=O (centres unmarked) [NSC634396]
The viability at 1 µM of the first is lower: 82.8% for the first, 169% for the second.

Compared with `O=C(O)CCC(=O)c1ccc2ccc3cccc4ccc1c2c34` [NSC407628], `Cc1cccc2c1c1ccc3c(c1n2C)C(=O)C=CC3=O` [NSC645330] is lower in viability at 1 µM: 94.7% for the first, 52.5% for the second.

Compared with `COc1ccc2c(c1)c1ccc3c(c1n2C)C(=O)C=CC3=O` [NSC641396], `Cc1ccc2c(c1)c1ccc3c(c1n2C)C(=O)C=CC3=O` [NSC661221] is higher in viability at 1 µM: 2.72% for the first, 7.53% for the second.

First: O=C(Nc1ccccc1F)Nc1cccc2ccc(O)cc12 [NSC214005]
Second: O=C(Nc1ccccc1F)Oc1cccc(OC(=O)Nc2ccccc2F)c1 [NSC214026]
The viability at 5 µM of the first is lower: 72.7% for the first, 91% for the second.

Compared with `CC1=CC(C)(C)Nc2ccc(Cc3ccc4c(c3)C(C)=CC(C)(C)N4)cc21` [NSC217697], `Cc1ccc2c(c1)c1ccc3c(c1n2C)C(=O)C=CC3=O` [NSC661221] is lower in viability at 5 µM: 74.4% for the first, 7.31% for the second.

Going from `CO[C@@H]1[C@@H](OC(=O)c2ccc(C)[nH]2)[C@@H](O)[C@H](Oc2ccc3c(O)c(NC(=O)c4ccc(O)c(CC=C(C)C)c4)c(=O)oc3c2Cl)OC1(C)C` [NSC227186] to `CO[C@@H]1C[C@](C)(O)Cc2cc3c(c(O)c21)C(=O)c1c(O)cc2c(c1C3=O)O[C@@H]1O[C@@]2(C)[C@H](O)[C@@H](N(C)C)[C@@H]1O` [NSC269148], the viability at 5 µM falls from 110% to 1.55%.

Compared with `Fc1ccc(-c2cc(-c3cccs3)cc(-c3ccccc3)n2)cc1` [NSC246999], `Cc1ccc(C2=Nc3ccccc3SC(c3cccc([N+](=O)[O-])c3)C2)cc1` (centres unmarked) [NSC270737] is lower in viability at 5 µM: 98.7% for the first, 15.1% for the second.

Going from `Cc1cc(N2CCN(C)CC2)n2nc(-c3ccc(Cl)cc3)nc2n1` [NSC252359] to `CC(=O)OCc1cc(-c2nc3ccccc3nc2O)nn1-c1ccc(Cl)cc1` [NSC339161], the viability at 5 µM rises from 75.8% to 87.5%.

Compared with `O=C1c2ccccc2-c2nc3ccccc3n21` [NSC252777], `O=C(O)C(Cc1c[nH]c2ccccc12)N1C(=O)c2ccccc2C1=O` (centres unmarked) [NSC401077] is higher in viability at 5 µM: 63.7% for the first, 75.3% for the second.

Going from `O=C(Oc1ccc(NC(=O)c2cc3c(cc2Br)OCO3)cc1)c1ccccc1` [NSC268487] to `O=C(Nc1cccc2ccccc12)c1cc2c(cc1Br)OCO2` [NSC292923], the viability at 5 µM falls from 72.1% to 68.3%.

Going from `O=c1cc(-c2cccnc2)oc2c1ccc1ccccc12` [NSC283845] to `O=C(Nc1ccc(Br)c2ccccc12)c1ccc2ccccc2c1O` [NSC601359], the viability at 5 µM rises from 60.4% to 72.7%.

First: Cc1nn(-c2ccccc2)c2c1C(c1ccc([N+](=O)[O-])cc1)C(C#N)=C(N)O2 (centres unmarked) [NSC298892]
Second: Cc1nn(-c2ccccc2)nc1C(=O)Nc1ccc2[nH]ncc2c1 [NSC371765]
The viability at 5 µM of the first is lower: 69.1% for the first, 86.1% for the second.

First: Nc1nc(N)c2cc(Sc3ccc4ccccc4c3)ccc2n1 [NSC305780]
Second: CCN1Cc2c(/C=C/c3ccccc3)nc3ccc(OC)cc3c2N(c2cccc(Cl)c2)C1 [NSC340852]
The viability at 5 µM of the first is lower: 6.56% for the first, 53.2% for the second.

Going from `OC(c1cc(-c2ccc(C(F)(F)F)cc2)nc(C(F)(F)F)c1)C1CCCCN1` (centres unmarked) [NSC305798] to `N#C/C(=C\C=C\c1ccccc1)c1nc(-c2ccc(Cl)cc2)cs1` [NSC310347], the viability at 5 µM rises from 18.9% to 74.4%.

Going from `Cc1cccc(NC2=C(C#N)C(=O)NC3(CCCC3)S2)c1` [NSC319436] to `Cc1c(N2CCCC2)cc2c(c1NC(=O)c1ccccc1Cl)C(C)(C)CC2(C)C` [NSC321496], the viability at 5 µM rises from 77.3% to 79.1%.

First: Cc1ccc(NC(=O)Nc2nc3ccccc3s2)cc1NC(=O)Nc1nc2ccccc2s1 [NSC319990]
Second: Oc1ccccc1-c1nc2c3ccccc3c3ccccc3c2[nH]1 [NSC332670]
The viability at 5 µM of the first is higher: 96.9% for the first, 84.8% for the second.

First: Clc1cc2c(c(CSc3nc4ccccc4n4cccc34)c1)OCOC2 [NSC321491]
Second: Clc1ccc(-c2n[nH]c3c2Cc2ccccc2-3)cc1Cl [NSC331968]
The viability at 5 µM of the first is higher: 85.7% for the first, 43.2% for the second.

Compared with `c1ccc(CSc2nnc3c4ccccc4c4ccccc4c3n2)cc1` [NSC327702], `O=C(Nc1ccccc1-c1ccccc1)C(=O)Nc1ccccc1-c1ccccc1` [NSC338042] is higher in viability at 5 µM: 82.6% for the first, 93.1% for the second.

Compared with `CCN(CC)c1nc(Cl)nc(Nc2ccc3cc(-c4ccccc4)c(=O)oc3c2)n1` [NSC338963], `COc1cccc(/C=C2\CCc3ccccc3C2=O)c1` [NSC636718] is lower in viability at 5 µM: 110% for the first, 65.6% for the second.

Going from `C#Cc1cccc(NC(=O)c2ccc(Cl)cc2Cl)c1` [NSC372769] to `Cc1c(Cl)cccc1NC(=O)CC1Sc2ccccc2NC1=O` (centres unmarked) [NSC634396], the viability at 5 µM rises from 93.1% to 118%.

First: O=C(O)CCC(=O)c1ccc2ccc3cccc4ccc1c2c34 [NSC407628]
Second: CC(=O)c1sc2c(c1OC(=O)c1ccc(Cl)cc1Cl)c(=O)n(-c1ccccc1)c(=S)n2-c1ccccc1 [NSC671136]
The viability at 5 µM of the first is higher: 100% for the first, 12.8% for the second.

Going from `COc1ccccc1/C=C1\Cc2ccccc2C1=O` [NSC636717] to `COc1ccc(/C=C2\Cc3ccccc3C2=O)cc1OC` [NSC643174], the viability at 5 µM falls from 86% to 81%.

Going from `COc1ccc2c(c1)c1ccc3c(c1n2C)C(=O)C=CC3=O` [NSC641396] to `Cc1cccc2c1c1ccc3c(c1n2C)C(=O)C=CC3=O` [NSC645330], the viability at 5 µM rises from 1.44% to 10%.

For `CCCc1cc(=O)oc2c3c(c4c(c12)OC(C)(C)C=C4)OC(C)[C@H](C)[C@@H]3O` (some centres unmarked) [NSC661122], the viability at 5 µM was 79.3%.
